# Source: ChEMBL document CHEMBL4229325, “Angiogenesis and cancer stem cells: New perspectives on therapy of ovarian cancer” (Eur J Med Chem, 2017)
# How the values were obtained:
# [1] = system: OVCAR-8; experiment: Cytotoxicity against human OVCAR8 cells assessed as cell viability level at 4 uM incubated for 72 hrs by MTT assay; format: functional
# [2] = system: OVCAR-8; experiment: Cytotoxicity against human OVCAR8 cells assessed as cell viability level at 8 uM incubated for 72 hrs by MTT assay; format: functional
# [3] = system: 2008; experiment: Cytotoxicity against human OV2008 cells assessed as reduction in cell viability incubated for 24 hrs by MTT assay; format: functional, cell-based; details: Homo sapiens, 2008, 24 h
# [4] = system: 2008; experiment: Cytotoxicity against human OV2008 cells assessed as reduction in cell viability incubated for 48 hrs by MTT assay; format: functional, cell-based; details: Homo sapiens, 2008, 48 h
# [5] = system: 2008; experiment: Cytotoxicity against human OV2008 cells assessed as reduction in cell viability incubated for 72 hrs by MTT assay; format: functional, cell-based; details: Homo sapiens, 2008, 72 h
# [6] = Growth inhibition of human ovarian epithelial cancer cells at 0.5 uM in presence of 20 nM PTX; format: functional
# [7] = Growth inhibition of human ovarian cancer stem cells at 0.5 uM in presence of 20 nM PTX; format: functional
# [8] = Cytotoxicity against human A2780/DX cells assessed as cell viability at 4 uM incubated for 72 hrs by MTT assay; format: functional; details: read-out: Activity
# [9] = system: NCI/ADR-RES; experiment: Cytotoxicity against human NCI-ADR-RES cells assessed as cell viability at 4 uM incubated for 72 hrs by MTT assay; format: functional; details: read-out: Activity
# [10] = Cytotoxicity against human A2780/DX cells assessed as cell viability at 8 uM incubated for 72 hrs by MTT assay; format: functional; details: read-out: Activity
# [11] = system: NCI/ADR-RES; experiment: Cytotoxicity against human NCI-ADR-RES cells assessed as cell viability at 8 uM incubated for 72 hrs by MTT assay; format: functional; details: read-out: Activity
# [12] = Cytotoxicity against human A2780cis cells assessed as cell viability at 8 uM incubated for 72 hrs by MTT assay; format: functional; details: read-out: Activity
# [13] = system: C13; experiment: Antitumor activity against human C13 cells xenografted in mouse assessed as tumor volume at 5 mg/kg, ip dosed every other day for 3 weeks and measured every two days (reference value: 252.5 +/- 63.4 mm3); format: functional
structure (smiles),measurement,setting,value
CC[C@@H](C(=O)[C@@H](C)[C@@H](O)[C@H](C)[C@@H]1O[C@@H]([C@@H](CC)C(=O)O)CC[C@@H]1C)[C@H]1O[C@]2(C=C[C@@H](O)[C@]3(CC[C@@](C)([C@H]4CC[C@](O)(CC)[C@H](C)O4)O3)O2)[C@H](C)C[C@@H]1C [SALINOMYCIN],Activity,[1],53%
same,Activity,[2],45%
same,IC50,[3],7.44 µM
same,IC50,[4],4.78 µM
same,IC50,[5],3.2 µM
same,growth inhibition (GI),[6],58%
same,growth inhibition (GI),[7],59%
same,viability at 4 µM,[8],50%
same,viability at 4 µM,[9],50%
same,viability at 8 µM,[10],43%
same,viability at 8 µM,[11],37%
same,viability at 8 µM,[12],55%
same,Activity,[13],84.2 mm3
